Where two headings read alike, the source gives them in different places.
Tests used:
LLC cells = type: in vivo, mouse; conditions: for Tumor Inhibition Rate: LLC
Description: The LLC cells were cultured in DMEM medium containing […] high-quality fetal bovine serum, in a cell incubator with […] CO2 at 37° C.
The LLC cells (tumor source) in the logarithmic growth phase were collected, and 0.1 mL of cell suspension (containing approximately 1×10^6 cells) was inoculated subcutaneously into the axillary region of the corresponding C57/BL/6 mice.
(§1) On day 1 after tumor cell inoculation, all mice were randomly grouped before drug administration.
(§2) Dosing was performed according to the design of the pharmacological study protocol.
On day 7 and day 9 after tumor cell inoculation, the length (a) and width (b) of the tumor in each group of animals were measured externally. The tumor volume was estimated using the formula: V=0.52×a×b^2.
On day 10 after tumor cell inoculation, the experiment was terminated, and tumors were excised and weighed from each group of animals.
Statistical analysis and tumor inhibition rate calculation were performed as follows: Data were statistically analyzed using GraphPad Prism software. The tumor inhibition rate was calculated based on tumor size or tumor weight using the following formula: Tumor Inhibition Rate (%)=[(Average tumor volume or tumor weight of control group−Average tumor volume or tumor weight of treatment group)/Average tumor volume or tumor weight of control group]×[…].

[1] = system: Mouse Lewis lung carcinoma (LLC) cells; test: Anti-tumor efficacy of PGc alone and with anti-mouse PD-1, LLC tumor in C57BL/6 mice (Example 6); type: in vivo
Description: The LLC cells were cultured in DMEM medium containing 10% high-quality fetal bovine serum (FBS) and maintained in a cell incubator with 5% CO2 at 37° C.
The LLC cells (tumor source) in the logarithmic growth phase were collected, and 0.1 mL of cell suspension (approximately 1×10^6 cells) was inoculated subcutaneously into the axillary region of the corresponding mice.
as §1, §2
On day 10 after tumor cell inoculation, the experiment was terminated, and tumors in each group of animals were excised and weighed.
Statistical Analysis and Tumor Inhibition Rate Calculation was as follows: Data were statistically analyzed using GraphPad Prism software.

## O=P1(N(CCCl)CCCl)NCCCO1 (centres unmarked) [Cyclophosphamide (CTX), Cyclophosphamide]
LLC cells; LLC s.c. in C57/BL/6 mice, day 7 after tumor cell inoculation, group mean
  Tumor Volume (mm^3) X: 80.40 mm^3
LLC cells; LLC s.c. in C57/BL/6 mice, day 9 after tumor cell inoculation, group mean
  Tumor Volume (mm^3) X: 112.89 mm^3
LLC cells; LLC s.c. in C57/BL/6 mice, day 10 after tumor cell inoculation, group mean
  Tumor Weight (g) X: 0.13 g
LLC cells; day 7 after tumor cell inoculation, from tumor volume vs NS
  Tumor Inhibition Rate: 33%
LLC cells; day 9 after tumor cell inoculation, from tumor volume vs NS
  Tumor Inhibition Rate: 47%
LLC cells; day 10 after tumor cell inoculation, from tumor weight vs NS
  Tumor Inhibition Rate: 45%
[1]; LLC s.c. in C57BL/6 mice, tumors excised at termination (day 8 in protocol table, day 10 in text)
  Tumor Weight (g) X ± SD: 0.03 ± 0.02 g
[1]; LLC, from tumor weight vs NS
  Tumor Inhibition Rate: 42.80%

Reference: US20260048111A1, “Pharmaceutical Composition, Preparation Method and Use Thereof” (PuGong Biotech (Hangzhou) Co., Ltd., priority 2023, published 2026)
